Experimental data published in patent publication US5654411A, “Process for preparing 4-deoxyerythromycin derivatives” (Abbott Laboratories, priority 1995, dated 1997).
≈ marks a conversion by molar mass, not a printed value.

Legend:
Escherichia coli SS = assay: Antibacterial activity (MIC), agar dilution method; format: cell-based; settings: unit assumed
Protocol: (§1) Compounds of the invention were next tested for antibacterial potency, such activity being regarded as an undesirable side effect if prokinetic therapy. Assays were conducted using methodology well-known in the art (the agar dilution method).

[1] = system: Pseudomonas aeruginosa DPHD-5263; assay: Antibacterial activity (MIC), agar dilution method; format: cell-based; settings: unit assumed
Protocol: as §1

[2] = system: Staphylococcus aureus ATCC 6538P; assay: Antibacterial activity (MIC), agar dilution method; format: cell-based; settings: unit assumed
Protocol: as §1

[3] = system: Staphylococcus aureus A-5278; assay: Antibacterial activity (MIC), agar dilution method; format: cell-based; settings: unit assumed
Protocol: as §1

[4] = system: Pseudomonas aeruginosa K799/WT; assay: Antibacterial activity (MIC), agar dilution method; format: cell-based; settings: unit assumed
Protocol: as §1

[5] = system: Streptococcus pyogenes 930 CONST; assay: Antibacterial activity (MIC), agar dilution method; format: cell-based; settings: unit assumed
Protocol: as §1

[6] = system: Pseudomonas aeruginosa A5007; assay: Antibacterial activity (MIC), agar dilution method; format: cell-based; settings: unit assumed
Protocol: as §1

[7] = system: Streptococcus pyogenes EES61; assay: Antibacterial activity (MIC), agar dilution method; format: cell-based; settings: unit assumed
Protocol: as §1

[8] = system: Klebsiella pneumoniae ATCC 8045; assay: Antibacterial activity (MIC), agar dilution method; format: cell-based; settings: unit assumed
Protocol: as §1

[9] = system: Pseudomonas aeruginosa DPHD-2862; assay: Antibacterial activity (MIC), agar dilution method; format: cell-based; settings: unit assumed
Protocol: as §1

Escherichia coli DC-2 = assay: Antibacterial activity (MIC), agar dilution method; format: cell-based; settings: unit assumed
Protocol: as §1

[10] = system: Micrococcus luteus ATCC 9341; assay: Antibacterial activity (MIC), agar dilution method; format: cell-based; settings: unit assumed
Protocol: as §1

Escherichia coli KNK 437 = assay: Antibacterial activity (MIC), agar dilution method; format: cell-based; settings: unit assumed
Protocol: as §1

Escherichia coli H560 = assay: Antibacterial activity (MIC), agar dilution method; format: cell-based; settings: unit assumed
Protocol: as §1

[11] = system: Streptococcus bovis A5169; assay: Antibacterial activity (MIC), agar dilution method; format: cell-based; settings: unit assumed
Protocol: as §1

[12] = system: Pseudomonas aeruginosa K799/61; assay: Antibacterial activity (MIC), agar dilution method; format: cell-based; settings: unit assumed
Protocol: as §1

[13] = system: Enterobacter aerogenes ATCC 13048; assay: Antibacterial activity (MIC), agar dilution method; format: cell-based; settings: unit assumed
Protocol: as §1

[14] = system: Staphylococcus aureus NCTC 10649; assay: Antibacterial activity (MIC), agar dilution method; format: cell-based; settings: unit assumed
Protocol: as §1

[15] = system: Staphylococcus aureus 642A; assay: Antibacterial activity (MIC), agar dilution method; format: cell-based; settings: unit assumed
Protocol: as §1

[16] = system: Enterococcus faecium ATCC 8043; assay: Antibacterial activity (MIC), agar dilution method; format: cell-based; settings: unit assumed
Protocol: as §1

[17] = system: Staphylococcus aureus CMX 553; assay: Antibacterial activity (MIC), agar dilution method; format: cell-based; settings: unit assumed
Protocol: as §1

[18] = system: Staphylococcus aureus 1775; assay: Antibacterial activity (MIC), agar dilution method; format: cell-based; settings: unit assumed
Protocol: as §1

[19] = system: Staphylococcus aureus A5177; assay: Antibacterial activity (MIC), agar dilution method; format: cell-based; settings: unit assumed
Protocol: as §1

[20] = system: Pseudomonas aeruginosa BMH10; assay: Antibacterial activity (MIC), agar dilution method; format: cell-based; settings: unit assumed
Protocol: as §1

Escherichia coli JUHL = assay: Antibacterial activity (MIC), agar dilution method; format: cell-based; settings: unit assumed
Protocol: as §1

[21] = system: Staphylococcus epidermidis 3519; assay: Antibacterial activity (MIC), agar dilution method; format: cell-based; settings: unit assumed
Protocol: as §1

[22] = system: Providencia stuartii CMX 640; assay: Antibacterial activity (MIC), agar dilution method; format: cell-based; settings: unit assumed
Protocol: as §1

[23] = system: Acinetobacter calcoaceticus CMX 669; assay: Antibacterial activity (MIC), agar dilution method; format: cell-based; settings: unit assumed
Protocol: as §1

[24] = system: Micrococcus luteus ATCC 4698; assay: Antibacterial activity (MIC), agar dilution method; format: cell-based; settings: unit assumed
Protocol: as §1

[25] = system: Streptococcus agalactiae CMX 508; assay: Antibacterial activity (MIC), agar dilution method; format: cell-based; settings: unit assumed
Protocol: as §1

[26] = system: Streptococcus pyogenes 2548 INDUC; assay: Antibacterial activity (MIC), agar dilution method; format: cell-based; settings: unit assumed
Protocol: as §1

Pseudomonas cepacia 2961 = assay: Antibacterial activity (MIC), agar dilution method; format: cell-based; settings: unit assumed
Protocol: as §1

[27] = system: smooth muscle strips isolated from rabbit small intestine; assay: Induction of in vitro rabbit duodenal smooth muscle contraction; settings: for EC50: Oryctolagus cuniculus, rabbit duodenum longitudinal muscle, 37° C., pH 7.5, read-out: pED50 (negative logarithm of the concentration producing half of the maximal contraction) (converted); for Relative Potency: relative to erythromycin A = 1.0
Protocol: The compounds of the present invention were tested in vitro for their ability to induce contraction of smooth muscle strips isolated from rabbit small intestine using the following procedure:
Rabbits were sacrificed and 15 cm of duodenum was rapidly removed and placed in ice-cold modified Ringers solution (120 mM sodium chloride, 25 mM sodium bicarbonate, 4.7 mM potassium chloride, 1.25 mM calcium chloride, 1.20 mM magnesium sulfate and 5.6 mM glucose). The longitudinal muscle layer was separated from the circular muscle by blunt dissection and cut into strips of 10×20 mm. Double-folded strips were vertically suspended between two hooks in 10 mL tissue baths with a mechanical preload of 1 g. The upper hook was connected to an […] force transducer, and its displacement was recorded on a Grass polygraph. The tissue baths contained modified Ringers solution at 37° C. and were continuously gassed with 95% oxygen/5% carbon dioxide in order to maintain the pH at 7.5.
After a stabilization period of at least 60 minutes, a contractility dose-response series was performed by adding increasing final concentrations of methacholine (10^-7 M, 10^-6 M and 10^-5 M) in volumes of 100 μL. The bath solutions were replaced at least three times between doses.
After the methacholine dose-response series was completed, a test compound dose response curve was initiated by the same procedure used for the methacholine dose-response series, with at least five concentrations of test compound within the range of 10^-10 M to 10^-4 M. The tissues were washed repeatedly between doses, and the studies were completed by recording the contractile response to 10^-5 M methacholine to ascertain integrity of the muscle preparation. Contractile responses were expressed as percent of maximal contraction. The concentration of test compound which produces half of the maximal contraction (ED50 value) and the negative logarithm of the ED50 value (PED50) were estimated from the dose-response curves.

Row | SMILES | MIC (Escherichia coli SS) [µg/mL] | MIC [1] [µg/mL] | MIC [2] [µg/mL] | MIC [3] [µg/mL] | MIC [4] [µg/mL] | MIC [5] [µg/mL] | MIC [6] [µg/mL] | MIC [7] [µg/mL] | MIC [8] [µg/mL] | MIC [9] [µg/mL] | MIC (Escherichia coli DC-2) [µg/mL] | MIC [10] [µg/mL] | MIC (Escherichia coli KNK 437) [µg/mL] | MIC (Escherichia coli H560) [µg/mL] | MIC [11] [µg/mL] | MIC [12] [µg/mL] | MIC [13] [µg/mL] | MIC [14] [µg/mL] | MIC [15] [µg/mL] | MIC [16] [µg/mL] | further results
1 | CC[C@H]1OC(=O)[C@H](C)[C@@H](O[C@H]2C[C@@](C)(OC)[C@@H](O)[C@H](C)O2)[C@H](C)[C@@H](O[C@@H]2O[C@H](C)C[C@H](N(C)C)[C@H]2O)[C@](C)(O)C[C@@H](C)C(=O)[C@H](C)[C@@H](O)[C@]1(C)O [Erythromycin] | 0.2 (≈ 0.273 µM) | 100 (≈ 136 µM) | 0.1 (≈ 0.136 µM) | > 100 | 100 (≈ 136 µM) | > 100 | > 100 | 0.05 (≈ 0.0681 µM) | 50 (≈ 68.1 µM) | > 100 | 50 (≈ 68.1 µM) | 0.02 (≈ 0.0273 µM) | 50 (≈ 68.1 µM) | 25 (≈ 34.1 µM) | 0.02 (≈ 0.0273 µM) | 3.1 (≈ 4.22 µM) | 100 (≈ 136 µM) | 0.2 (≈ 0.273 µM) | 0.2 (≈ 0.273 µM) | 0.05 (≈ 0.0681 µM) | MIC [17]: 0.2 µg/mL (≈ 0.273 µM); MIC [18]: > 100 µg/mL; MIC [19]: 1.56 µg/mL (≈ 2.13 µM); MIC [20]: 50 µg/mL (≈ 68.1 µM); MIC (Escherichia coli JUHL): 50 µg/mL (≈ 68.1 µM); MIC [21]: 0.2 µg/mL (≈ 0.273 µM); MIC [22]: > 100 µg/mL; MIC [23]: 6.2 µg/mL (≈ 8.45 µM); MIC [24]: 0.1 µg/mL (≈ 0.136 µM); MIC [25]: 0.05 µg/mL (≈ 0.0681 µM); MIC [26]: 6.2 µg/mL (≈ 8.45 µM); MIC (Pseudomonas cepacia 2961): > 100 µg/mL
2 | CC[C@H]1OC(=O)[C@H](C)[C@@H](O[C@H]2C[C@@](C)(OC)C[C@H](C)O2)[C@H](C)[C@@H](O[C@@H]2O[C@H](C)C[C@H](N(C)CC)[C@H]2O)[C@@]2(C)C[C@H](C)C(O2)[C@H](C)[C@@H](O)[C@]1(C)O [Example 11, 9-deoxo-3'-N-desmethyl-4",6-dideoxy-8-epi-3'-N-ethyl-6,9-epoxyerythromycin A] | > 100 | > 100 | > 100 | > 100 | > 100 | 100 (≈ 140 µM) | > 100 | 25 (≈ 34.9 µM) | > 100 | > 100 | > 100 | 25 (≈ 34.9 µM) | > 100 | > 100 | 50 (≈ 69.8 µM) | > 100 | > 100 | 100 (≈ 140 µM) | > 100 | 50 (≈ 69.8 µM) | EC50 [27]: 2.88 nM; Relative Potency [27]: 490; MIC [17]: > 100 µg/mL; MIC [18]: > 100 µg/mL; MIC [19]: 100 µg/mL (≈ 140 µM); MIC [20]: > 100 µg/mL; MIC (Escherichia coli JUHL): > 100 µg/mL; MIC [21]: 100 µg/mL (≈ 140 µM); MIC [22]: > 100 µg/mL; MIC [23]: > 100 µg/mL; MIC [24]: 25 µg/mL (≈ 34.9 µM); MIC [25]: 6.2 µg/mL (≈ 8.66 µM); MIC [26]: 50 µg/mL (≈ 69.8 µM); MIC (Pseudomonas cepacia 2961): > 100 µg/mL
3 | CC[C@H]1OC(=O)[C@H](C)[C@@H](O[C@H]2C[C@@](C)(OC)C[C@H](C)O2)[C@H](C)[C@@H](O[C@@H]2O[C@H](C)C[C@H](N(C)CC)[C@H]2O)[C@@]2(C)C[C@@H](C)C(O2)[C@H](C)[C@@H](O)[C@]1(C)O [Example 15, 9-deoxo-3'-N-desmethyl-4",6-dideoxy-6,9-epoxy-3'-N-ethylerythromycin A] | 100 (≈ 140 µM) | > 100 | 100 (≈ 140 µM) | > 100 | > 100 | > 100 | > 100 | 25 (≈ 34.9 µM) | > 100 | > 100 | > 100 | 25 (≈ 34.9 µM) | > 100 | > 100 | 6.2 (≈ 8.66 µM) | > 100 | > 100 | > 100 | > 100 | 50 (≈ 69.8 µM) | EC50 [27]: 23.4 nM; Relative Potency [27]: 60; MIC [17]: > 100 µg/mL; MIC [18]: > 100 µg/mL; MIC [19]: > 100 µg/mL; MIC [20]: > 100 µg/mL; MIC (Escherichia coli JUHL): > 100 µg/mL; MIC [21]: 100 µg/mL (≈ 140 µM); MIC [22]: > 100 µg/mL; MIC [23]: > 100 µg/mL; MIC [24]: 25 µg/mL (≈ 34.9 µM); MIC [25]: 6.2 µg/mL (≈ 8.66 µM); MIC [26]: 50 µg/mL (≈ 69.8 µM); MIC (Pseudomonas cepacia 2961): > 100 µg/mL
